Paper doi:10.1101/2021.10.07.463234v2 (biorxiv, 2021)
Structures can show the parent of a compound that is named as a salt.

Biological target: SARS-CoV-2 Mac1 (Severe acute respiratory syndrome coronavirus 2, UniProt P0DTD1)
Experiment: biochemical
Conditions: 100 µM; inhibitor

Row | Structure (SMILES) | %inhibition [%]
1 | CCNC(=O)[C@@H]1CCCN1C(=O)[C@H](CCCNC(=N)N)NC(=O)[C@H](CC(C)C)NC(=O)[C@@H](CC(C)C)NC(=O)[C@H](Cc1ccc(O)cc1)NC(=O)[C@H](CO)NC(=O)[C@H](Cc1c[nH]c2ccccc12)NC(=O)[C@H](Cc1c[nH]cn1)NC(=O)[C@@H]1CCC(=O)N1 [Leuprorelin Acetate] | 6.662
2 | C[C@H]1COc2c(N3CCN(C)CC3)c(F)cc3c(=O)c(C(=O)O)cn1c23 [Levofloxacin hydrate] | 0
3 | C[C@H]1COc2c(N3CCN(C)CC3)c(F)cc3c(=O)c(C(=O)O)cn1c23 [Levofloxacin] | 22.21
4 | N[C@@H](Cc1cc(I)c(Oc2cc(I)c(O)c(I)c2)c(I)c1)C(=O)O [Levothyroxine sodium] | 4.124
5 | CCN(CC)CC(=O)Nc1c(C)cccc1C [Lidocaine hydrochloride] | 4.808
6 | CCN(CC)CC(=O)Nc1c(C)cccc1C [Lidocaine] | 1.6
7 | CCC[C@@H]1C[C@@H](C(=O)N[C@@H]([C@H]2O[C@H](SC)[C@H](O)[C@@H](O)[C@H]2O)[C@@H](C)O)N(C)C1 [Lincomycin HCl] | 0
8 | CCC[C@@H]1C[C@@H](C(=O)N[C@@H]([C@H]2O[C@H](SC)[C@H](O)[C@@H](O)[C@H]2O)[C@@H](C)O)N(C)C1 [Lincomycin Hydrochloride Monohydrate] | 16.9
9 | O=C(NC1CCN(CCCCC2(C(=O)NCC(F)(F)F)c3ccccc3-c3ccccc32)CC1)c1ccccc1-c1ccc(C(F)(F)F)cc1 [Lomitapide Mesylate] | 34.98
10 | CCCCc1nc(Cl)c(CO)n1Cc1ccc(-c2ccccc2-c2nnn[nH]2)cc1 [Losartan Potassium (DuP 753)] | 0
11 | CCCCc1nc(Cl)c(CO)n1Cc1ccc(-c2ccccc2-c2nnn[nH]2)cc1 [Losartan] | 18.38
12 | CC(C(=O)O)c1ccc(CC2CCCC2=O)cc1 (stereo not shown) [Loxoprofen Sodium] | 0
13 | CC(C(=O)O)c1ccc(CC2CCCC2=O)cc1 (stereo not shown) [Loxoprofen] | 5.364
14 | NCc1ccc(S(N)(=O)=O)cc1 [Mafenide Acetate] | 0
15 | NCc1ccc(S(N)(=O)=O)cc1 [Mafenide hydrochloride] | 8.456

Same assay, conditions: read-out: %inhibition

Row | Structure (SMILES) | inhibition at 100 µM [%]
16 | O=C(O)CSc1nnc(Br)n1-c1ccc(C2CC2)c2ccccc12 [Lesinurad] | 2.49
17 | CCNC(=O)[C@@H]1CCCN1C(=O)[C@H](CCCNC(=N)N)NC(=O)[C@H](CC(C)C)NC(=O)[C@@H](CC(C)C)NC(=O)[C@H](Cc1ccc(O)cc1)NC(=O)[C@H](CO)NC(=O)[C@H](Cc1c[nH]c2ccccc12)NC(=O)[C@H](Cc1c[nH]cn1)NC(=O)[C@@H]1CCC(=O)N1 [Leuprolide Acetate] | 13.2
18 | c1ccc([C@H]2CN3CCSC3=N2)cc1 [Levamisole hydrochloride] | 0
19 | CC[C@@H](C(N)=O)N1CCCC1=O [Levetiracetam] | 0
20 | CC(C)NC[C@H](O)COc1ccc(CCOCC2CC2)cc1 [Levobetaxolol HCl] | 12.1
21 | CCCCN1CCCC[C@H]1C(=O)Nc1c(C)cccc1C [Levobupivacaine HCl] | 0
22 | O=C(O)COCCN1CCN([C@H](c2ccccc2)c2ccc(Cl)cc2)CC1 [Levocetirizine Dihydrochloride] | 7.84
23 | OC[C@@H](O)CN1CCN(c2ccccc2)CC1 [Levodropropizine] | 4.43
24 | C#C[C@]1(O)CC[C@H]2[C@@H]3CCC4=CC(=O)CC[C@@H]4[C@H]3CC[C@@]21CC [Levonorgestrel] | 53.4
25 | C[C@@H]1CC(=O)NN=C1c1ccc(NN=C(C#N)C#N)cc1 [Levosimendan] | 0
26 | CCN1CCC[C@H]1CNC(=O)c1cc(S(N)(=O)=O)ccc1OC [Levosulpiride] | 0
27 | CS(=O)(=O)c1cccc(C[C@H](NC(=O)c2c(Cl)cc3c(c2Cl)CCN(C(=O)c2ccc4ccoc4c2)C3)C(=O)O)c1 [Lifitegrast] | 0
28 | CC#CCn1c(N2CCC[C@@H](N)C2)nc2c1c(=O)n(Cc1nc(C)c3ccccc3n1)c(=O)n2C [Linagliptin] | 23.9
29 | CC(=O)NC[C@H]1CN(c2ccc(N3CCOCC3)c(F)c2)C(=O)O1 [Linezolid] | 0
30 | Cc1ccc(F)c(NC(=O)Nc2ccc(-c3cccc4[nH]nc(N)c34)cc2)c1 [Linifanib (ABT-869)] | 52.3
31 | C[C@]1(O)C[C@@H](c2nc(-c3ccc4ccc(-c5ccccc5)nc4c3)c3c(N)nccn32)C1 [Linsitinib (OSI-906)] | 9.54
32 | NCCCC[C@H](N[C@@H](CCc1ccccc1)C(=O)O)C(=O)N1CCC[C@H]1C(=O)O [Lisinopril] | 3.22
33 | C[C@H](CCC(=O)O)[C@H]1CC[C@H]2[C@@H]3CC[C@@H]4C[C@H](O)CC[C@]4(C)[C@H]3CC[C@]12C [Lithocholic acid] | 0
34 | CCn1cc(C(=O)O)c(=O)c2cc(F)c(N3CCNC(C)C3)c(F)c21 (stereo not shown) [Lomefloxacin] | 0
35 | COc1ccc(CN2CCN(C(c3ccc(F)cc3)c3ccc(F)cc3)CC2)c(OC)c1OC [Lomerizine 2HCl] | 12.8

Row | Structure (SMILES) | inhibition at 100 µM [%]
36 | CC(C)(C)C#Cc1cc(N(C(=O)[C@H]2CC[C@H](C)CC2)[C@H]2CC[C@H](O)CC2)c(C(=O)O)s1 [Lomibuvir (VX-222, VCH-222)] | 2.87
37 | O=C(NC1CCN(CCCCC2(C(=O)NCC(F)(F)F)c3ccccc3-c3ccccc32)CC1)c1ccccc1-c1ccc(C(F)(F)F)cc1 [Lomitapide] | 17.8
38 | NC(=O)N1CCC(CC(=O)N2CCC([C@H]3c4ncc(Br)cc4CCc4cc(Cl)cc(Br)c43)CC2)CC1 [Lonafarnib] | 29.6
39 | O=C(O)c1nn(Cc2ccc(Cl)cc2Cl)c2ccccc12 [Lonidamine] | 7.38
40 | Cc1cccc(C)c1OCC(=O)N[C@@H](Cc1ccccc1)[C@@H](O)C[C@H](Cc1ccccc1)NC(=O)[C@H](C(C)C)N1CCCNC1=O [Lopinavir] | 0
41 | CN1C(C(=O)Nc2ccccn2)=C(O)c2sc(Cl)cc2S1(=O)=O [Lornoxicam] | 18.3
42 | Cc1c(F)cc(C(=O)NC2CC2)cc1-c1ccc(C(=O)NCC(C)(C)C)cn1 [Losmapimod (GW856553X)] | 0
43 | CCOC(=O)O[C@]1(C(=O)OCCl)CC[C@H]2[C@@H]3CCC4=CC(=O)C=C[C@]4(C)[C@H]3[C@@H](O)C[C@@]21C [Loteprednol etabonate] | 0
44 | CC[C@H](C)C(=O)O[C@H]1C[C@@H](C)C=C2C=C[C@H](C)[C@H](CC[C@@H]3C[C@@H](O)CC(=O)O3)[C@H]21 [Lovastatin] | 0
45 | CN1CCN(C2=Nc3ccccc3Oc3ccc(Cl)cc32)CC1 [Loxapine Succinate] | 30.4
46 | CCCCC(F)(F)[C@@]1(O)CC[C@H]2[C@@H](CC(=O)[C@@H]2CCCCCCC(=O)O)O1 [Lubiprostone] | 13.8
47 | N#C/C(=C1/SC[C@@H](c2ccc(Cl)cc2Cl)S1)n1ccnc1 [Luliconazole] | 24.1
48 | CCCCN(CCCC)CC(O)c1cc(Cl)cc2c1-c1ccc(Cl)cc1/C2=C/c1ccc(Cl)cc1 (stereo not shown) [Lumefantrine] | 0
49 | CCCNS(=O)(=O)Nc1ncnc(OCCOc2ncc(Br)cn2)c1-c1ccc(Br)cc1 [Macitentan] | 10
50 | CC(C)OC(=O)C(C(=O)OC(C)C)=C1SC=CS1 [Malotilate] | 0.00863
51 | Cc1occc(=O)c1O [Maltol] | 15.5
52 | COC(=O)C1=C(C)NC(C)=C(C(=O)OCCN2CCN(C(c3ccccc3)c3ccccc3)CC2)C1c1cccc([N+](=O)[O-])c1 (stereo not shown) [Manidipine 2HCl] | 0
53 | Cc1nnc(C(C)C)n1[C@@H]1C[C@H]2CC[C@@H](C1)N2CC[C@H](NC(=O)C1CCC(F)(F)CC1)c1ccccc1 [Maraviroc] | 24.2
54 | CN1CCN(c2c(F)cc3c(=O)c(C(=O)O)cn4c3c2OCN4C)CC1 [Marbofloxacin] | 18.3
55 | CNC(=O)[C@@H](NC(=O)[C@H](CC(C)C)[C@H](O)C(=O)NO)C(C)(C)C [Marimastat (BB-2516)] | 3.16

Row | Structure (SMILES) | inhibition at 100 µM [%]
56 | Cc1ccc(NC(=O)c2ccc(CN3CCN(C)CC3)cc2)cc1Nc1nc(-c2cccnc2)cs1 [Masitinib (AB1010)] | 7.66
57 | COC(=O)Nc1nc2cc(C(=O)c3ccccc3)ccc2[nH]1 [Mebendazole] | 0
58 | CCN(CCCCOC(=O)c1ccc(OC)c(OC)c1)C(C)Cc1ccc(OC)cc1 (stereo not shown) [Mebeverine Hydrochloride] | 5.64
59 | CCOC(=O)c1c(C)n(C)c2ccc(O)cc12 [Mecarbinate] | 0
60 | Cc1cccc(CN2CCN(C(c3ccccc3)c3ccc(Cl)cc3)CC2)c1 (stereo not shown) [Meclizine 2HCl] | 9.09
61 | Cc1ccc(Cl)c(Nc2ccccc2C(=O)O)c1Cl [Meclofenamate Sodium] | 5.23
62 | CN(C)CCOC(=O)COc1ccc(Cl)cc1 [Meclofenoxate (Centrophenoxine) HCl] | 16.9
63 | Cc1cccc(C(C)c2c[nH]cn2)c1C (stereo not shown) [Medetomidine HCl] | 21.9
64 | CC(=O)O[C@]1(C(C)=O)CC[C@H]2[C@@H]3C[C@H](C)C4=CC(=O)CC[C@]4(C)[C@H]3CC[C@@]21C [Medroxyprogesterone acetate] | 26.1
65 | Cc1cccc(Nc2ccccc2C(=O)O)c1C [Mefenamic Acid] | 21
66 | O[C@@H](c1cc(C(F)(F)F)nc2c(C(F)(F)F)cccc12)[C@H]1CCCCN1 [Mefloquine HCl] | 0
67 | CC(=O)O[C@]1(C(C)=O)CC[C@H]2[C@@H]3C=C(C)C4=CC(=O)CC[C@]4(C)[C@H]3CC[C@@]21C [Megestrol Acetate] | 23.5
68 | CNC[C@H](O)[C@@H](O)[C@H](O)[C@H](O)CO [Meglumine] | 15.6
69 | COc1ccc2[nH]cc(CCNC(C)=O)c2c1 [Melatonin] | 9.33
70 | Cc1cnc(NC(=O)C2=C(O)c3ccccc3S(=O)(=O)N2C)s1 [Meloxicam] | 41.6
71 | N[C@@H](Cc1ccc(N(CCCl)CCCl)cc1)C(=O)O [Melphalan] | 3.44
72 | CC12CC3CC(C)(C1)CC(N)(C3)C2 [Memantine HCl] | 0
73 | CC1=CC(=O)c2ccccc2C1=O [Menadione] | 1.18
